The text below walks through data of patent publication US10981917B2, “Heterocyclic compound, its preparation method, and pharmaceutical composition comprising the same” (Daewoong Pharmaceutical Co., Ltd., priority 2017, dated 2021).

The structures appear in SMILES notation.

Broadly, the IC50 is the point on the concentration scale where inhibition reaches its midpoint. A low value points to higher potency.

The target of the experiment is PRS (prolyl-tRNA synthetase) protein, PRS portion of EPRS (Homo sapiens (Human), UniProt P07814). Briefly: PRS enzyme activity inhibition experiment ([3H]proline, liquid scintillation). Type of experiment: biochemical. The settings on record: purified PRS protein, 37° C. for 5 to 10 minutes. The method, boiled down: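 Values are % inhibition or IC50 ranges (A ≤100 nM, B 100–500 nM, C ≥500 nM) from [3H]proline incorporation measured by liquid scintillation. PRS portion of human EPRS, reacted 5–10 min at 37 °C in pH 7.4 phosphate buffer containing 5 mM ATP and tRNA, compound at 1 μM.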
Chain of PRS (prolyl-tRNA synthetase) protein, PRS portion of EPRS (P07814 1007-1512): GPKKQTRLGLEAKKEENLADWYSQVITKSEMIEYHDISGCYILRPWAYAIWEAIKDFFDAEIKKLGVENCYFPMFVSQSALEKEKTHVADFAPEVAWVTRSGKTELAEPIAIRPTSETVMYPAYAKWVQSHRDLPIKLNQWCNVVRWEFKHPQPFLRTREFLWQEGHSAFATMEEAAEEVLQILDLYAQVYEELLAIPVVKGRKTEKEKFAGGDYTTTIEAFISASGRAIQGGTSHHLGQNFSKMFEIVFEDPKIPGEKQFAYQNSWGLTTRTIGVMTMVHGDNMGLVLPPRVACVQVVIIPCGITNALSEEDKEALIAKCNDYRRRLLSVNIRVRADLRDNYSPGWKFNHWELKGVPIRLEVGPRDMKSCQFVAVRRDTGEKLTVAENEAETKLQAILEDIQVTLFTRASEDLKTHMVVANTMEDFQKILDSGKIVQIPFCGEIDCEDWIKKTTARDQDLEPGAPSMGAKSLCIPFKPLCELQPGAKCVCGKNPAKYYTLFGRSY
`O[C@H]1CCCN[C@@H]1CCCn1nc(-c2cnn(C(F)F)c2)c2ccc(Cl)cc21` [Example 158, (2R,3S)-2-(3-(6-chloro-3-(1-(difluoromethyl)-1H-pyrazol-4-yl)-1H-indazol-1-yl)propyl)piperidin-3-ol] yielded a concentration for half-maximal inhibition (IC50) of at least 500 nM.
Then `Cn1c(=O)n(CCC[C@H]2NCCC[C@@H]2O)c2ccccc21` [Example 159, 1-(3-((2R,3S)-3-hydroxypiperidin-2-yl)propyl)-3-methyl-1H-benzo[d]imidazol-2(3H)-one], with at least 500 nM; and `O=c1[nH]c2cc(Br)ccc2n1CCC[C@H]1NCCC[C@@H]1O` [Example 160, 5-bromo-1-(3-((2R,3S)-3-hydroxypiperidin-2-yl)propyl)-1H-benzo[d]imidazol-2(3H)-one], with at least 500 nM; and `O=c1[nH]c2ccc(Br)cc2n1CCC[C@H]1NCCC[C@@H]1O` [Example 161, 6-bromo-1-(3-((2R,3S)-3-hydroxypiperidin-2-yl)propyl)-1H-benzo[d]imidazol-2(3H)-one], with at least 500 nM.
Then `Cn1c(=O)c2c(ncn2CCC[C@H]2NCCC[C@@H]2O)n(C)c1=O` [Example 162, 7-(3-((2R,3S)-3-hydroxypiperidin-2-yl)propyl)-1,3-dimethyl-1H-purine-2,6(3H,7H)-dione], with at least 500 nM; and `Cn1c(=O)[nH]c(=O)c2c1ncn2CCC[C@H]1NCCC[C@@H]1O` [Example 163, 7-(3-((2R,3S)-3-hydroxypiperidin-2-yl)propyl)-3-methyl-1H-purine-2,6(3H,7H)-dione], with at least 500 nM; and `Cn1c(=O)[nH]c2c(ncn2CCC[C@H]2NCCC[C@@H]2O)c1=O` [Example 164, 9-(3-((2R,3S)-3-hydroxypiperidin-2-yl)propyl)-1-methyl-1H-purine-2,6(3H,9H)-dione], with at least 500 nM.
For `CC(C)Cn1c(=O)n(C)c(=O)c2c1ncn2CCC[C@H]1NCCC[C@@H]1O` [Example 165, 7-(3-((2R,3S)-3-hydroxypiperidin-2-yl)propyl)-3-isobutyl-1-methyl-1H-purine-2,6(3H,7H)-dione] the value was at least 500 nM.
The compound `O[C@H]1CCCN[C@@H]1/C=C/Cn1cnc2cc(Cl)c(Cl)cc21` [Example 166, (2R,3S)-2-((E)-3-(5,6-dichloro-1H-benzo[d]imidazol-1-yl)prop-1-enyl)piperidin-3-ol] registered an IC50 of 100 to 500 nM.
Then `Cc1c(F)ccc2c1ncn2C/C=C/[C@H]1NCCC[C@@H]1O` [Example 167, (2R,3S)-2-((E)-3-(5-fluoro-4-methyl-1H-benzo[d]imidazol-1-yl)prop-1-enyl)piperidin-3-ol], with 100 to 500 nM; and `Cc1c(Br)ccc2c1ncn2C/C=C/[C@H]1NCCC[C@@H]1O` [Example 168, (2R,3S)-2-((E)-3-(5-bromo-4-methyl-1H-benzo[d]imidazol-1-yl)prop-1-enyl)piperidin-3-ol], with 100 to 500 nM; and `Cc1cc2ncn(C/C=C/[C@H]3NCCC[C@@H]3O)c2cc1C` [Example 169, (2R,3S)-2-((E)-3-(5,6-dimethyl-1H-benzo[d]imidazol-1-yl)prop-1-en-1-yl)piperidin-3-ol], with at least 500 nM.
For `O[C@H]1CCCN[C@@H]1/C=C/Cn1cnc2cc(Br)c(Br)cc21` [Example 170, (2R,3S)-2-((E)-3-(5,6-dibromo-1H-benzo[d]imidazol-1-yl)prop-1-en-1-yl)piperidin-3-ol] the value was 100 to 500 nM; for `O[C@H]1CCCN[C@@H]1/C=C/Cn1cnc2cc(F)c(F)cc21` [Example 171, (2R,3S)-2-((E)-3-(5,6-difluoro-1H-benzo[d]imidazol-1-yl)prop-1-en-1-yl)piperidin-3-ol], at least 500 nM.
Then `Cc1ccc2c(ncn2C/C=C/[C@H]2NCCC[C@@H]2O)c1C` [Example 172, (2R,3S)-2-((E)-3-(4,5-dimethyl-1H-benzo[d]imidazol-1-yl)prop-1-en-1-yl)piperidin-3-ol], with at least 500 nM.
With `Cc1c(Cl)ccc2c1ncn2C/C=C/[C@H]1NCCC[C@@H]1O` [Example 173, (2R,3S)-2-((E)-3-(5-chloro-4-methyl-1H-benzo[d]imidazol-1-yl)prop-1-en-1-yl)piperidin-3-ol], the concentration for half-maximal inhibition (IC50) was in the range of 100 to 500 nM.
In turn, `O[C@H]1CCCN[C@@H]1/C=C/Cn1cnc2c(Cl)c(Cl)ccc21` [Example 174, (2R,3S)-2-((E)-3-(4,5-dichloro-1H-benzo[d]imidazol-1-yl)prop-1-en-1-yl)piperidin-3-ol] returned an IC50 of at most 100 nM.
Consider `Cc1ccc2c(ncn2C/C=C/[C@H]2NCCC[C@@H]2O)c1Cl` [Example 175, (2R,3S)-2-((E)-3-(4-chloro-5-methyl-1H-benzo[d]imidazol-1-yl)prop-1-en-1-yl)piperidin-3-ol], for which the IC50 fell in the range of 100 to 500 nM.
For `O=[N+]([O-])c1c(Br)ccc2c1ncn2C/C=C/[C@H]1NCCC[C@@H]1O` [Example 176, (2R,3S)-2-((E)-3-(5-bromo-4-nitro-1H-benzo[d]imidazol-1-yl)prop-1-en-1-yl)piperidin-3-ol] the value was at least 500 nM.
In turn, `O=[N+]([O-])c1c(Br)ccc2ncn(C/C=C/[C@H]3NCCC[C@@H]3O)c12` [Example 177, (2R,3S)-2-((E)-3-(6-bromo-7-nitro-1H-benzo[d]imidazol-1-yl)prop-1-en-1-yl)piperidin-3-ol] displayed a half-inhibitory concentration (IC50) of at least 500 nM.
For `O=[N+]([O-])c1ccc2c(ncn2C/C=C/[C@H]2NCCC[C@@H]2O)c1Cl` [Example 178, (2R,3S)-2-((E)-3-(4-chloro-5-nitro-1H-benzo[d]imidazol-1-yl)prop-1-en-1-yl)piperidin-3-ol] the value was 100 to 500 nM; for `O[C@H]1CCCN[C@@H]1/C=C/Cn1cnc2c(F)cc(F)cc21` [Example 179, (2R,3S)-2-((E)-3-(4,6-difluoro-1H-benzo[d]imidazol-1-yl)prop-1-en-1-yl)piperidin-3-ol], 100 to 500 nM; for `Cc1cc(Cl)cc2c1ncn2C/C=C/[C@H]1NCCC[C@@H]1O` [Example 180, (2R,3S)-2-((E)-3-(6-chloro-4-methyl-1H-benzo[d]imidazol-1-yl)prop-1-en-1-yl)piperidin-3-ol], 100 to 500 nM.
The compound `O[C@H]1CCCN[C@@H]1/C=C/Cn1cnc2cc(C(F)(F)F)cc(Cl)c21` [Example 181, (2R,3S)-2-((E)-3-(7-chloro-5-(trifluoromethyl)-1H-benzo[d]imidazol-1-yl)prop-1-en-1-yl)piperidin-3-ol] yielded a 50% inhibitory concentration (IC50) of 100 to 500 nM.
Then `O[C@H]1CCCN[C@@H]1/C=C/Cn1cnc2cc(Cl)cc(Cl)c21` [Example 182, (2R,3S)-2-((E)-3-(5,7-dichloro-1H-benzo[d]imidazol-1-yl)prop-1-en-1-yl)piperidin-3-ol], with at most 100 nM.
For `O[C@H]1CCCN[C@@H]1/C=C/Cn1cnc2cc(Cl)cc(F)c21` [Example 183, (2R,3S)-2-((E)-3-(5-chloro-7-fluoro-1H-benzo[d]imidazol-1-yl)prop-1-en-1-yl)piperidin-3-ol] the value was 100 to 500 nM; for `O[C@H]1CCCN[C@@H]1/C=C/Cn1cnc2nc(Br)ccc21` [Example 184, (2R,3S)-2-((E)-3-(5-bromo-1H-imidazo[4,5-b]pyridin-1-yl)prop-1-en-1-yl)piperidin-3-ol], at least 500 nM; for `O[C@H]1CCCN[C@@H]1/C=C/Cn1cnc2c(Cl)c(-c3cccc(Cl)c3)cnc21` [Example 185, (2R,3S)-2-((E)-3-(7-chloro-6-(3-chlorophenyl)-3H-imidazo[4,5-b]pyridin-3-yl)prop-1-en-1-yl)piperidin-3-ol], at least 500 nM.
Then `Cc1c(Br)cnc2c1ncn2C/C=C/[C@H]1NCCC[C@@H]1O` [Example 186, (2R,3S)-2-((E)-3-(6-bromo-7-methyl-3H-imidazo[4,5-b]pyridin-3-yl)prop-1-en-1-yl)piperidin-3-ol], with 100 to 500 nM; and `O[C@H]1CCCN[C@@H]1/C=C/Cn1cnc2c(Cl)c(Br)cnc21` [Example 187, (2R,3S)-2-((E)-3-(6-bromo-7-chloro-3H-imidazo[4,5-b]pyridin-3-yl)prop-1l-en-1-yl)piperidin-3-ol], with at most 100 nM.
As for `Cc1c(Cl)cnc2c1ncn2C/C=C/[C@H]1NCCC[C@@H]1O` [Example 188, (2R,3S)-2-((E)-3-(6-chloro-7-methyl-3H-imidazo[4,5-b]pyridin-3-yl)prop-1-en-1-yl)piperidin-3-ol], the IC50 is at least 500 nM.
Then `O[C@H]1CCCN[C@@H]1/C=C/Cn1cnc2c(Cl)c(Cl)cnc21` [Example 189, (2R,3S)-2-((E)-3-(6,7-dichloro-3H-imidazo[4,5-b]pyridin-3-yl)prop-1-en-1-yl)piperidin-3-ol], with 100 to 500 nM.
For `O[C@H]1CCCN[C@@H]1/C=C/Cn1cnc2ccc(-c3cccc(Cl)c3)cc21` [Example 190, (2R,3S)-2-((E)-3-(6-(3-chlorophenyl)-1H-benzo[d]imidazol-1-yl)prop-1-en-1-yl)piperidin-3-ol] the value was 100 to 500 nM; for `O[C@H]1CCCN[C@@H]1/C=C/Cn1cnc2ccc(-c3cccc(F)c3)cc21` [Example 191, (2R,3S)-2-((E)-3-(6-(3-fluorophenyl)-1H-benzo[d]imidazol-1-yl)prop-1-en-1-yl)piperidin-3-ol], 100 to 500 nM; for `O[C@H]1CCCN[C@@H]1/C=C/Cn1cnc2ccc(-c3cccc(C(F)(F)F)c3)cc21` [Example 192, (2R,3S)-2-((E)-3-(6-(3-(trifluoromethyl)phenyl)-1H-benzo[d]imidazol-1-yl)prop-1-enyl)piperidin-3-ol], 100 to 500 nM.
Then `Cc1nc2cc(Br)c(F)c(F)c2n1C/C=C/[C@H]1NCCC[C@@H]1O` [Example 193, (2R,3S)-2-((E)-3-(5-bromo-6,7-difluoro-2-methyl-1H-benzo[d]imidazol-1-yl)prop-1-en-1-yl)piperidin-3-ol], with at least 500 nM.
`O[C@H]1CCCN[C@@H]1/C=C/CN1CCc2ccccc21` [Example 194, (2R,3S)-2-((E)-3-(indolin-1-yl)prop-1-en-1-yl)piperidin-3-ol] yielded an IC50 of at least 500 nM.
For `O[C@H]1CCCN[C@@H]1/C=C/CN1CCc2cc(Cl)ccc21` [Example 195, (2R,3S)-2-((E)-3-(5-chloroindolin-1-yl)prop-1-en-1-yl)piperidin-3-ol] the value was at least 500 nM.
